What was measured:
[1] = target: Nicotinamide phosphoribosyltransferase (Homo sapiens, UniProt P43490)
Description: Inhibition of NAMPT (unknown origin) using NAM as substrate preincubated for 5 mins followed by substrate addition and measured after 15 mins by fluorescence based microtiter plate reader analysis

MIA PaCa-2 [2] = test: cells; conditions: Homo sapiens, MIA PaCa-2, 72 h
Description: Antiproliferative activity against human MIA PaCa-2 cells assessed as inhibition of cell growth incubated for 72 hrs by CCK8 assay

HCT-116 [3] = test: cells; conditions: Homo sapiens, HCT-116, 72 h
Description: Antiproliferative activity against human HCT-116 cells assessed as inhibition of cell growth incubated for 72 hrs by CCK8 assay

A549 [4] = test: cells; conditions: Homo sapiens, A549, 72 h
Description: Antiproliferative activity against human A549 cells assessed as inhibition of cell growth incubated for 72 hrs by CCK8 assay

MIA PaCa-2 [5] = test: Synergistic antiproliferative activity against human MIA PaCa-2 cells harboring KRAS G12C mutant assessed as inhibition of cell growth by measuring combination index at 1:2 molar ratio of test compound:1-(4-(piperidin-1-ylsulfonyl)phenyl)-3-(pyridin-3-ylmethyl)thiourea by chou-talalay method; type: functional
MIA PaCa-2 [6] = test: Antiproliferative activity against human MIA PaCa-2 cells assessed as inhibition of cell growth incubated for 72 hrs in presence of 1-(4-(piperidin-1-ylsulfonyl)phenyl)-3-(pyridin-3-ylmethyl)thiourea by CCK8 assay; type: functional, cell-based; conditions: MIA PaCa-2, 72 h
HCT-116 [7] = test: Antiproliferative activity against human HCT-116 cells assessed as inhibition of cell growth incubated for 72 hrs in presence of 1-(4-(piperidin-1-ylsulfonyl)phenyl)-3-(pyridin-3-ylmethyl)thiourea by CCK8 assay; type: functional, cell-based; conditions: HCT-116, 72 h
A549 [8] = test: Antiproliferative activity against human A549 cells assessed as inhibition of cell growth incubated for 72 hrs in presence of 1-(4-(piperidin-1-ylsulfonyl)phenyl)-3-(pyridin-3-ylmethyl)thiourea by CCK8 assay; type: functional, cell-based; conditions: A549, 72 h
MIA PaCa-2 [9] = test: Antitumor activity against human MIA PaCa-2 cells xenografted in female BALB/C nude mouse assessed as tumor growth inhibition at 20 mg/kg, ip administered once daily for 21 days relative to control; conditions: MIA PaCa-2, 504 h, read-out: TGI
MIA PaCa-2 [10] = test: Antitumor activity against human MIA PaCa-2 cells xenografted in female BALB/C nude mouse assessed as tumor growth inhibition at 20 mg/kg, ip co-administered with 1-(4-(piperidin-1-ylsulfonyl)phenyl)-3-(pyridin-3-ylmethyl)thiourea once daily for 21 days relative to control; type: functional; conditions: MIA PaCa-2, 504 h, time 21 day, read-out: TGI
[11] = target: Retinal rod rhodopsin-sensitive cGMP 3',5'-cyclic phosphodiesterase subunit delta (Homo sapiens, UniProt O43924)
Retinal rod rhodopsin-sensitive cGMP 3',5'-cyclic phosphodiesterase subunit delta, sequence (O43924 whole entry): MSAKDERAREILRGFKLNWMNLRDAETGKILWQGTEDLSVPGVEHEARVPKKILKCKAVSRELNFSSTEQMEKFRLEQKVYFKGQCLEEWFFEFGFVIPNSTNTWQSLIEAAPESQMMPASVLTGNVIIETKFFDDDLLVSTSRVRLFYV

Nicotinamide phosphoribosyltransferase, sequence (P43490 whole entry): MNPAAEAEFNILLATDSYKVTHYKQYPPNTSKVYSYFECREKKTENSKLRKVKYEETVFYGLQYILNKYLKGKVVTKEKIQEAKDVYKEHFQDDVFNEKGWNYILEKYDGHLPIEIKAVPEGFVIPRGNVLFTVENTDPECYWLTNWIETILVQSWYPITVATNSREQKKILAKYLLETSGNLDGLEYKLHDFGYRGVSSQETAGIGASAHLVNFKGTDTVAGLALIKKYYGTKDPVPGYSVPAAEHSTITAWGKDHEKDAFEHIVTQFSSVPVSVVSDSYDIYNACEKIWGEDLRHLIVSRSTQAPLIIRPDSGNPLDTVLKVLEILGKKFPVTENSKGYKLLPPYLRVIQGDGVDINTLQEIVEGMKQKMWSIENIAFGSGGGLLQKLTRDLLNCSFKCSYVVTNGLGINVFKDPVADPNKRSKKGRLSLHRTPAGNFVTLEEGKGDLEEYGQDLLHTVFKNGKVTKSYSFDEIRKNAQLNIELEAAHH

| SMILES | IC50 [1] | IC50 (MIA PaCa-2 [2]) | IC50 (HCT-116 [3]) | IC50 (A549 [4]) | CI (MIA PaCa-2 [5]) | IC50 (MIA PaCa-2 [6]) | IC50 (HCT-116 [7]) | IC50 (A549 [8]) | inhibition in vivo at 20 mg/kg (MIA PaCa-2 [9]) | inhibition in vivo at 20 mg/kg (MIA PaCa-2 [10]) | Kd [11] |
| --- | --- | --- | --- | --- | --- | --- | --- | --- | --- | --- | --- |
| O=C(/C=C/c1cccnc1)Nc1ccc(S(=O)(=O)N(Cc2ccc(Cl)cc2)C2CCCC2)cc1 | 266 nM | 36 nM | 711 nM | 14 nM | – | – | – | – | – | – | – |
| Cc1ccc(-n2nc3c(=O)n(CCC(=O)N4CCC(N5C(=O)c6ccccc6NC5c5ccccc5F)CC4)nc(C)c3c2C)cc1 (centres undefined) | – | > 20000 nM | 6870 nM | > 20000 nM | <1 | 130 nM | 233 nM | 39 nM | 26.8% | 44.1% | 5.16 nM |

Source: ChEMBL document CHEMBL6134904, “Discovery of Potent PDEδ/NAMPT Dual Inhibitors: Preclinical Evaluation in KRAS Mutant Pancreatic Cancer Cells” (J Med Chem, 2025)
